# System: D. melanogaster nAChRs
# Test: Comparison of agonist activity between nAChRs expressed in X. laevis oocytes (one-way ANOVA, Kruskal-Wallis);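 for Difference of Imax values: Imax relative to maximal plateau response to ACh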
# Assay type: cell-based
# Outline: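 Agonist pEC50 values, derived from Hill fits of normalised peak currents, were compared across receptors by one-way ANOVA or Kruskal-Wallis. Currents came from oocytes clamped at −100 mV and perfused with atropine-containing saline (0.5 μM), 3–4 days after cRNA injection of fly nAChR subunits and co-factors.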
# [1] = Dα1/Dα2/Dα3/Dβ1 vs. Dα1/Dα2/Dα3/Dβ1/Dβ2
# [2] = Dα1/Dα2/Dα3/Dβ1 vs. Dα1/Dα2/Dβ1/Dβ2
# [3] = Dα1/Dα2/Dα3/Dβ1 vs. Dα1/Dα3/Dβ1/Dβ2
# [4] = Dα1/Dα2/Dα3/Dβ1 vs. Dα1/Dβ1/Dβ2
# [5] = Dα1/Dα2/Dα3/Dβ1 vs. Dα2/Dα3/Dβ1/Dβ2
# [6] = Dα1/Dα2/Dα3/Dβ1 vs. Dα3/Dβ1/Dβ2
# [7] = Dα1/Dα2/Dβ1/Dβ2 vs. Dα1/Dα2/Dα3/Dβ1/Dβ2
# [8] = Dα1/Dα2/Dβ1/Dβ2 vs. Dα2/Dα3/Dβ1/Dβ2
# [9] = Dα1/Dα2/Dβ1 vs. Dα1/Dα2/Dα3/Dβ1
# [10] = Dα1/Dα2/Dβ1 vs. Dα1/Dα2/Dα3/Dβ1/Dβ2
# [11] = Dα1/Dα2/Dβ1 vs. Dα1/Dα2/Dβ1/Dβ2
# [12] = Dα1/Dα2/Dβ1 vs. Dα1/Dα3/Dβ1/Dβ2
# [13] = Dα1/Dα2/Dβ1 vs. Dα2/Dα3/Dβ1/Dβ2
# [14] = Dα1/Dα3/Dβ1/Dβ2 vs. Dα1/Dα2/Dα3/Dβ1/Dβ2
# [15] = Dα1/Dα3/Dβ1/Dβ2 vs. Dα1/Dα2/Dβ1/Dβ2
# [16] = Dα1/Dα3/Dβ1/Dβ2 vs. Dα2/Dα3/Dβ1/Dβ2
# [17] = Dα1/Dα3/Dβ1 vs. Dα1/Dα2/Dα3/Dβ1
# [18] = Dα1/Dα3/Dβ1 vs. Dα1/Dα2/Dα3/Dβ1/Dβ2
# [19] = Dα1/Dα3/Dβ1 vs. Dα1/Dα2/Dβ1/Dβ2
# [20] = Dα1/Dα3/Dβ1 vs. Dα1/Dα3/Dβ1/Dβ2
# [21] = Dα1/Dα3/Dβ1 vs. Dα2/Dα3/Dβ1/Dβ2
# [22] = Dα1/Dβ1/Dβ2 vs. Dα1/Dα2/Dα3/Dβ1/Dβ2
# [23] = Dα1/Dβ1/Dβ2 vs. Dα1/Dα2/Dβ1/Dβ2
# [24] = Dα1/Dβ1/Dβ2 vs. Dα1/Dα3/Dβ1/Dβ2
# [25] = Dα1/Dβ1/Dβ2 vs. Dα2/Dα3/Dβ1/Dβ2
# [26] = Dα1/Dβ1 vs. Dα1/Dα2/Dα3/Dβ1/Dβ2
# [27] = Dα2/Dα3/Dβ1/Dβ2 vs. Dα1/Dα2/Dα3/Dβ1/Dβ2
# [28] = Dα2/Dα3/Dβ1 vs. Dα1/Dα2/Dα3/Dβ1
# [29] = Dα2/Dα3/Dβ1 vs. Dα1/Dα2/Dα3/Dβ1/Dβ2
# [30] = Dα2/Dα3/Dβ1 vs. Dα1/Dα2/Dβ1/Dβ2
# [31] = Dα2/Dα3/Dβ1 vs. Dα1/Dα3/Dβ1/Dβ2
# [32] = Dα2/Dα3/Dβ1 vs. Dα2/Dα3/Dβ1/Dβ2
# [33] = Dα3/Dβ1/Dβ2 vs. Dα1/Dα2/Dα3/Dβ1/Dβ2
# [34] = Dα3/Dβ1/Dβ2 vs. Dα1/Dα2/Dβ1/Dβ2
# [35] = Dα3/Dβ1/Dβ2 vs. Dα1/Dα3/Dβ1/Dβ2
# [36] = Dα3/Dβ1/Dβ2 vs. Dα2/Dα3/Dβ1/Dβ2
# [37] = Dα3/Dβ1 vs. Dα1/Dα2/Dα3/Dβ1/Dβ2
smiles,measurement,setting,value
"N#C/N=C1\SCCN1Cc1ccc(Cl)nc1 [Thiacloprid, thiacloprid]","Difference of pEC50 values, nAChRs compared",Dα1/Dα2/Dα3/Dβ1/Dβ2 vs. Dα1/Dα2/Dα4/Dβ1/Dβ2,0.17
same,"Difference of pEC50 values, nAChRs compared",Dα1/Dα2/Dα3/Dβ1/Dβ2 vs. Dα1/Dα2/Dβ1/Dβ2/Dβ3,-0.53
same,"Difference of pEC50 values, nAChRs compared",Dα1/Dα2/Dα3/Dβ1/Dβ2 vs. Dα1/Dα3/Dα4/Dβ1/Dβ2,-0.78
same,"Difference of pEC50 values, nAChRs compared",Dα1/Dα2/Dα3/Dβ1/Dβ2 vs. Dα1/Dα3/Dβ1/Dβ2/Dβ3,-1.45
same,"Difference of pEC50 values, nAChRs compared",Dα1/Dα2/Dα3/Dβ1/Dβ2 vs. Dα2/Dα3/Dα4/Dβ1/Dβ2,-0.81
same,"Difference of pEC50 values, nAChRs compared",Dα1/Dα2/Dα3/Dβ1/Dβ2 vs. Dα2/Dα3/Dβ1/Dβ2/Dβ3,-1.13
same,Difference of Imax values,[1],-0.012
same,Difference of pEC50 values,[1],0.55
same,Difference of Imax values,[2],-0.027
same,Difference of pEC50 values,[2],0.63
same,Difference of Imax values,[3],-0.060
same,Difference of pEC50 values,[3],-0.27
same,Difference of Imax values,[4],0.004
same,Difference of pEC50 values,[4],-0.13
same,Difference of Imax values,[5],0.030
same,Difference of pEC50 values,[5],-0.35
same,Difference of Imax values,[6],0.025
same,Difference of pEC50 values,[6],-0.59
same,Difference of Imax values,[7],0.015
same,Difference of pEC50 values,[7],-0.08
same,Difference of Imax values,[8],0.057
same,Difference of pEC50 values,[8],-0.98
same,Difference of Imax values,[9],-0.022
same,Difference of pEC50 values,[9],-0.81
same,Difference of Imax values,[10],-0.034
same,Difference of pEC50 values,[10],-0.26
same,Difference of Imax values,[11],-0.049
same,Difference of pEC50 values,[11],-0.18
same,Difference of Imax values,[12],-0.082
same,Difference of pEC50 values,[12],-1.08
same,Difference of Imax values,Dα1/Dα2/Dβ1 vs. Dα1/Dβ1/Dβ2,-0.018
same,Difference of pEC50 values,Dα1/Dα2/Dβ1 vs. Dα1/Dβ1/Dβ2,-0.94
same,Difference of Imax values,Dα1/Dα2/Dβ1 vs. Dα2/Dα3/Dβ1,-0.020
same,Difference of pEC50 values,Dα1/Dα2/Dβ1 vs. Dα2/Dα3/Dβ1,0.00
same,Difference of Imax values,[13],0.008
same,Difference of pEC50 values,[13],-1.16
same,Difference of Imax values,Dα1/Dα2/Dβ1 vs. Dα3/Dβ1/Dβ2,0.003
same,Difference of pEC50 values,Dα1/Dα2/Dβ1 vs. Dα3/Dβ1/Dβ2,-1.40
same,Difference of Imax values,[14],0.048
same,Difference of pEC50 values,[14],0.82
same,Difference of Imax values,[15],0.033
same,Difference of pEC50 values,[15],0.90
same,Difference of Imax values,[16],0.090
same,Difference of pEC50 values,[16],-0.08
same,Difference of Imax values,[17],0.000
same,Difference of pEC50 values,[17],0.34
same,Difference of Imax values,[18],-0.012
same,Difference of pEC50 values,[18],0.89
same,Difference of Imax values,Dα1/Dα3/Dβ1 vs. Dα1/Dα2/Dβ1,0.022
same,Difference of pEC50 values,Dα1/Dα3/Dβ1 vs. Dα1/Dα2/Dβ1,1.15
same,Difference of Imax values,[19],-0.027
same,Difference of pEC50 values,[19],0.97
same,Difference of Imax values,[20],-0.060
same,Difference of pEC50 values,[20],0.07
same,Difference of Imax values,Dα1/Dα3/Dβ1 vs. Dα1/Dβ1/Dβ2,0.004
same,Difference of pEC50 values,Dα1/Dα3/Dβ1 vs. Dα1/Dβ1/Dβ2,0.21
same,Difference of Imax values,Dα1/Dα3/Dβ1 vs. Dα2/Dα3/Dβ1,0.002
same,Difference of pEC50 values,Dα1/Dα3/Dβ1 vs. Dα2/Dα3/Dβ1,1.15
same,Difference of Imax values,[21],0.030
same,Difference of pEC50 values,[21],-0.01
same,Difference of Imax values,Dα1/Dα3/Dβ1 vs. Dα3/Dβ1/Dβ2,0.025
same,Difference of pEC50 values,Dα1/Dα3/Dβ1 vs. Dα3/Dβ1/Dβ2,-0.25
same,Difference of Imax values,[22],-0.016
same,Difference of pEC50 values,[22],0.68
same,Difference of Imax values,[23],-0.031
same,Difference of pEC50 values,[23],0.76
same,Difference of Imax values,[24],-0.064
same,Difference of pEC50 values,[24],-0.14
same,Difference of Imax values,[25],0.026
same,Difference of pEC50 values,[25],-0.22
same,Difference of Imax values,Dα1/Dβ1/Dβ2 vs. Dα3/Dβ1/Dβ2,0.021
same,Difference of pEC50 values,Dα1/Dβ1/Dβ2 vs. Dα3/Dβ1/Dβ2,-0.46
same,Difference of Imax values,Dα1/Dβ1 vs. Dα1/Dα2/Dα3/Dβ1,0.044
same,Difference of pEC50 values,Dα1/Dβ1 vs. Dα1/Dα2/Dα3/Dβ1,0.06
same,Difference of Imax values,[26],0.032
same,Difference of pEC50 values,[26],0.61
same,Difference of Imax values,Dα1/Dβ1 vs. Dα1/Dα2/Dβ1,0.066
same,Difference of pEC50 values,Dα1/Dβ1 vs. Dα1/Dα2/Dβ1,0.87
same,Difference of Imax values,Dα1/Dβ1 vs. Dα1/Dα2/Dβ1/Dβ2,0.017
same,Difference of pEC50 values,Dα1/Dβ1 vs. Dα1/Dα2/Dβ1/Dβ2,0.69
same,Difference of Imax values,Dα1/Dβ1 vs. Dα1/Dα3/Dβ1,0.044
same,Difference of pEC50 values,Dα1/Dβ1 vs. Dα1/Dα3/Dβ1,-0.28
same,Difference of Imax values,Dα1/Dβ1 vs. Dα1/Dα3/Dβ1/Dβ2,-0.016
same,Difference of pEC50 values,Dα1/Dβ1 vs. Dα1/Dα3/Dβ1/Dβ2,-0.21
same,Difference of Imax values,Dα1/Dβ1 vs. Dα1/Dβ1/Dβ2,0.048
same,Difference of pEC50 values,Dα1/Dβ1 vs. Dα1/Dβ1/Dβ2,-0.07
same,Difference of Imax values,Dα1/Dβ1 vs. Dα2/Dα3/Dβ1,0.046
same,Difference of pEC50 values,Dα1/Dβ1 vs. Dα2/Dα3/Dβ1,0.87
same,Difference of Imax values,Dα1/Dβ1 vs. Dα2/Dα3/Dβ1/Dβ2,0.074
same,Difference of pEC50 values,Dα1/Dβ1 vs. Dα2/Dα3/Dβ1/Dβ2,-0.29
same,Difference of Imax values,Dα1/Dβ1 vs. Dα3/Dβ1,0.075
same,Difference of pEC50 values,Dα1/Dβ1 vs. Dα3/Dβ1,-0.01
same,Difference of Imax values,Dα1/Dβ1 vs. Dα3/Dβ1/Dβ2,0.069
same,Difference of pEC50 values,Dα1/Dβ1 vs. Dα3/Dβ1/Dβ2,-0.53
same,Difference of Imax values,[27],-0.042
same,Difference of pEC50 values,[27],0.90
same,Difference of Imax values,[28],-0.002
same,Difference of pEC50 values,[28],-0.81
same,Difference of Imax values,[29],-0.014
same,Difference of pEC50 values,[29],-0.26
same,Difference of Imax values,[30],-0.029
same,Difference of pEC50 values,[30],-0.18
same,Difference of Imax values,[31],-0.062
same,Difference of pEC50 values,[31],-1.08
same,Difference of Imax values,Dα2/Dα3/Dβ1 vs. Dα1/Dβ1/Dβ2,0.002
same,Difference of pEC50 values,Dα2/Dα3/Dβ1 vs. Dα1/Dβ1/Dβ2,-0.94
same,Difference of Imax values,[32],0.028
same,Difference of pEC50 values,[32],-1.16
same,Difference of Imax values,Dα2/Dα3/Dβ1 vs. Dα3/Dβ1/Dβ2,0.023
same,Difference of pEC50 values,Dα2/Dα3/Dβ1 vs. Dα3/Dβ1/Dβ2,-1.40
same,Difference of Imax values,[33],-0.037
same,Difference of pEC50 values,[33],1.14
same,Difference of Imax values,[34],-0.052
same,Difference of pEC50 values,[34],1.22
same,Difference of Imax values,[35],-0.085
same,Difference of pEC50 values,[35],0.32
same,Difference of Imax values,[36],0.005
same,Difference of pEC50 values,[36],0.24
same,Difference of Imax values,Dα3/Dβ1 vs. Dα1/Dα2/Dα3/Dβ1,-0.031
same,Difference of pEC50 values,Dα3/Dβ1 vs. Dα1/Dα2/Dα3/Dβ1,0.07
same,Difference of Imax values,[37],-0.043
same,Difference of pEC50 values,[37],0.62
same,Difference of Imax values,Dα3/Dβ1 vs. Dα1/Dα2/Dβ1,-0.009
same,Difference of pEC50 values,Dα3/Dβ1 vs. Dα1/Dα2/Dβ1,0.88
same,Difference of Imax values,Dα3/Dβ1 vs. Dα1/Dα2/Dβ1/Dβ2,-0.058
same,Difference of pEC50 values,Dα3/Dβ1 vs. Dα1/Dα2/Dβ1/Dβ2,0.70
same,Difference of Imax values,Dα3/Dβ1 vs. Dα1/Dα3/Dβ1,-0.031
same,Difference of pEC50 values,Dα3/Dβ1 vs. Dα1/Dα3/Dβ1,-0.27
same,Difference of Imax values,Dα3/Dβ1 vs. Dα1/Dα3/Dβ1/Dβ2,-0.091
same,Difference of pEC50 values,Dα3/Dβ1 vs. Dα1/Dα3/Dβ1/Dβ2,-0.20
same,Difference of Imax values,Dα3/Dβ1 vs. Dα1/Dβ1/Dβ2,-0.027
same,Difference of pEC50 values,Dα3/Dβ1 vs. Dα1/Dβ1/Dβ2,-0.06
same,Difference of Imax values,Dα3/Dβ1 vs. Dα2/Dα3/Dβ1,-0.029
same,Difference of pEC50 values,Dα3/Dβ1 vs. Dα2/Dα3/Dβ1,0.88
same,Difference of Imax values,Dα3/Dβ1 vs. Dα2/Dα3/Dβ1/Dβ2,-0.001
same,Difference of pEC50 values,Dα3/Dβ1 vs. Dα2/Dα3/Dβ1/Dβ2,-0.28
same,Difference of Imax values,Dα3/Dβ1 vs. Dα3/Dβ1/Dβ2,-0.006
same,Difference of pEC50 values,Dα3/Dβ1 vs. Dα3/Dβ1/Dβ2,-0.52

# Source: PMC9934367, “Functional impact of subunit composition and compensation on Drosophila melanogaster nicotinic receptors–targets of neonicotinoids” (PLOS Genetics, 2023)
